# Tests used:
# apolipoprotein A (A1) = assay: Secretion of apolipoprotein A (A1) from HepG2 cells into the test medium, ELISA; assay type: cell-based, human; conditions: 150 μM, 24 hr culture, FIG. 2
# Protocol: (§1) A test medium containing 150 μM of linolic acid menthol ester (1% BSA-DMEM) was provided. In this test medium, human liver-derived HepG2 cells were cultured for 24 hr, and the cells and the medium were collected.
# (§2) Evaluation 2: Test on Secretion (Inhibition/Enhancement) of Apolipoproteins A and B
# (§3) The amount of apolipoprotein A (A1) and apolipoprotein B (B100) secreted from the human liver-derived HepG2 cells into the test medium was measured by the ELISA method.
# apolipoprotein B (B100) = assay: Secretion of apolipoprotein B (B100) from HepG2 cells into the test medium, ELISA; assay type: cell-based, human; conditions: 150 μM, 24 hr culture, FIG. 1
# Protocol: as §1, §2, §3
smiles,measurement,setting,value
CCCCC/C=C\C/C=C\CCCCCCCC(=O)OC1CC(C)CCC1C(C)C (centres unmarked) [linolic acid menthol ester],amount of apolipoprotein A (A1) secreted,apolipoprotein A (A1),significantly enhance the secretion of apolipoprotein A (A1)
same,amount of apolipoprotein B (B100) secreted,apolipoprotein B (B100),inhibit the secretion of apolipoprotein B (B100)

# From patent US20090131520A1, “Lipid metabolism Improving Composition” (priority 2005, published 2009)
